Values of other authors, collected in patent publication US11589578B2, “Painting with biocides composition and/or prolonged release pesticides” (priority 2018, dated 2023).
Like-named read-outs stand apart in the source and are kept apart here.

Settings: for Stability in aqueous media, in words: pH as stated in the value

## CCOP(=S)(OCC)Oc1nc(Cl)c(Cl)cc1Cl [Chlorpyrifos]
Aqueous media, pH 10
  Decomposition time (Average life): 7 days

## C=CCC1=C(C)C(OC(=O)C2C(C=C(C)C)C2(C)C)CC1=O [D-allethrin]
Aqueous media, pH 7
  Decomposition time (Average life): 500 days
Aqueous media, pH 9
  Decomposition time (Average life): (4.3 days)
  Stability in aqueous media, in words: Stable at a pH 5 after 31 days

## CCOP(=S)(OCC)Oc1cc(C)nc(C(C)C)n1 [Diazinon]
Aqueous media, pH 5
  Decomposition time (Average life): 31 days
Aqueous media, pH 7.5
  Decomposition time (Average life): 185 days
Aqueous media, pH 9
  Decomposition time (Average life): 136 days

## O=C(NC(=O)c1c(F)cccc1F)Nc1ccc(Cl)cc1 [Diflubenzuron]
Aqueous media, pH 9
  Behaviour at pH 9, in words: Hydrolyzes

## CCN(CC)c1nc(C)cc(OP(=S)(OC)OC)n1 [Methylperimiphos]
Aqueous media, pH 5
  Decomposition time (Average life): 7 days
Aqueous media, pH 8
  Decomposition time (Average life): 5 days

## CC1(C)C(C=C(Cl)Cl)C1C(=O)OC(C#N)c1cccc(Oc2ccccc2)c1 (stereo not shown) [cypermethrin]
Aqueous media, pH 9
  Decomposition time (Average life): 7 days

## CC1(C)[C@H](C(=O)O[C@H](C#N)c2cccc(Oc3ccccc3)c2)[C@@H]1C=C(Br)Br [deltamethrin]
Aqueous media, pH 7
  Decomposition time (Average life): 0.33 days
  Stability in aqueous media, in words: more stable in medium acid solutions
